Measured values taken from publication PMC10143845, “Series of Organotin(IV) Compounds with Different Dithiocarbamate Ligands Induced Cytotoxicity, Apoptosis and Cell Cycle Arrest on Jurkat E6.1, T Acute Lymphoblastic Leukemia Cells” (Molecules, 2023).
“Also recorded” adds a separate entry of the source. Read-outs that look alike come from different tables or passages of the source.

What was measured:
Jurkat E6.1 cells [1] = assay: Cell cycle analysis with RNase/PI stain by flow cytometry; type: cell-based, human; conditions: Jurkat E6.1, treated at IC50 concentration, 24 h; for cells in G0/G1 phase / cells in G2/M phase / cells in S phase: mean ± SEM
Method: Cell cycle analysis was performed according to the manufacturer’s instructions using PI/RNase Staining Buffer (BD Bioscience, East Rutherford, NJ, USA). For this assay, the Jurkat E6.1 cell line was cultured in 6-well culture plates with a final concentration of 1.0 × 10^6 cells/mL and treated with organotin(IV) dithiocarbamate compounds for 24 h, with vincristine as the positive control. The concentration of each treatment used was based on the IC50 values obtained from the WST-1 assay. After the incubation period, 500 µL of cell suspension was washed twice with cold PBS and fixed overnight with 500 µL of 70% ethanol. The cells were then stained with 500 µL RNase/PI stain and measured using a BD FACS Canto II flow cytometer (BD Bioscience, East Rutherford, NJ, USA). The cell cycle phases were analyzed using the ModFit LT software (Verity Software House).

Jurkat E6.1 cells [2] = assay: Annexin V-FITC/PI apoptosis assay (mode of cell death) by flow cytometry; type: cell-based, human; conditions: Jurkat E6.1, treated at IC50 concentration, 24 h; for cell population in early apoptotic phase / cell population in late apoptotic phase: mean ± SEM; for total apoptosis population: early + late apoptosis
Method: Apoptosis assay was performed according to the manufacturer’s instructions using Annexin V-FITC/PI staining kit (BD Biosciences, East Rutherford, NJ, USA). The Jurkat E6.1 cells were seeded in a 6-well plate with a final concentration of 5.0 × 10^5 cell/mL. […] After the incubation period, 500 μL of cells were harvested and transferred into a microcentrifuge tube. The sample was centrifuged at 1500 rpm for 5 min at 4 °C (Mikro 200R, Hettich, Kirchlengern, Germany) and the supernatant was discarded, and 500 μL of cold PBS was added to the sample followed by another centrifugation for 5 min, then the supernatant was discarded. Next, 150 μL of Annexin V binding buffer and 5.0 μL of Annexin V-FITC were added to the sample in the dark and then incubated for 15 min at room temperature. After that, 3.0 μL of propidium iodide (PI) was added to the samples. The samples then incubated for another 2 min at room temperature. Finally, 350 μL of Annexin V binding buffer was added to the samples and transferred into Falcon tubes. The samples were then analyzed using a BD FACS Canto II flow cytometer (BD Bioscience, East Rutherford, NJ, USA).

[3] = test system: WIL2-NS non-cancerous cells; assay: WST-1 cytotoxicity assay on WIL2-NS cells; type: cell-based; conditions: read-out: Value of IC50 WIL2-NS
Method: (§1) The Jurkat E6.1 (TIB-152™) and WIL2-NS (CRL-8155™) cell lines were purchased from the American Type Culture Collection. These cells were cultured in Roswell Park Memorial Institute Medium 1640, RPMI-1640 supplemented with 10% Fetal Bovine Serum (FBS) and 1% penicillin-streptomycin to obtain the complete growth medium. The cells were incubated at 37 °C with 5% CO2 (New Brunswick Galaxy 170 S, Hamburg, Germany).
(§2) Jurkat E6.1 and WIL2-NS cell lines were cultured in 75 cm^2 flasks and seeded in 96-well culture plates with a final concentration of 1 × 10^6 cells/mL. The cells were exposed to organotin(IV) dithiocarbamate compounds with the highest concentration of 5.0 μM. Vincristine was used in this study as a positive control with its highest concentration, at 5.0 μM, while untreated cells (cells and complete medium only) were used as the negative control. Serial dilution methods are used to obtain the desired concentration gradient and the cells were then exposed to the compounds overnight (24 h). After the incubation period, the WST-1 solution (Roche, Basel, Switzerland) was added in a ratio of 1:10 to the suspension volume in the wells and incubated for another 4 h. Finally, the cells’ optical density (OD) was measured using an ELISA microplate reader (Multiskan FC, Thermo Scientific, Waltham, MA, USA) at 440 nm wavelength. The data obtained were analyzed using GraphPad Prism software (Dotmatics) to determine the IC50 values.

[4] = test system: Jurkat E6.1 human T acute lymphoblastic leukemia cell line; assay: WST-1 cytotoxicity assay on Jurkat E6.1 cells; conditions: for Selectivity Index (SI): IC50 non-cancerous cell line (WIL2-NS) / IC50 leukemia cell line (Jurkat E6.1); for IC50: read-out: Value of IC50 Jurkat E6.1; for kind of effect on the cells (cytostatic or cytotoxic): Jurkat E6.1, WST-1, up to 5.0 μM, 24 h
Method: as §1, §2
(§3) The selectivity index is determined by dividing the cytotoxic activity (IC50 value) of each compound on a non-cancerous cell line (WIL2-NS) to a leukemia cell line (Jurkat E6.1) using the following equation:SI = IC50 for non cancerous cell line IC50 for cancerous cell line

in vitro = conditions: human
Method: as §1, §2, §3

Jurkat E6.1 cells [5] = test system: Jurkat E6.1 cells; design: method as in earlier work; conditions: ref 31 (Kamaludin et al.); cited from earlier work
[6] = WST-1, 24 h exposure, highest concentration 5.0 μM, mean ± SEM, n = 3

Structure (SMILES) | cells in G0/G1 phase (Jurkat E6.1 cells [1]) | cells in G2/M phase (Jurkat E6.1 cells [1]) | cells in S phase (Jurkat E6.1 cells [1]) | cell population in early apoptotic phase (Jurkat E6.1 cells [2]) [%] | cell population in late apoptotic phase (Jurkat E6.1 cells [2]) [%] | total apoptosis population (Jurkat E6.1 cells [2]) [%] | IC50 [3, 6] [µM] | Selectivity Index (SI) [4] | IC50 [4, 6] [µM] | IC50 ([3]; Homo sapiens, WIL2-NS, 24 h) [µM] | IC50 ([4]; Homo sapiens, Jurkat E6.1, 24 h) [µM] | kind of effect on the cells (cytostatic or cytotoxic) [4] | viability at 24 h, 0.3 µM (in vitro) [%] | IC50 (Jurkat E6.1 cells [5]) [µM] | Phases of Cell Cycle Arrest (Jurkat E6.1 cells [1]) | Value of IC50 Jurkat E6.1 [4, 6]
C=CCN(CC=C)C(=S)[S][Sn]([S]C(=S)N(CC=C)CC=C)([c]1ccccc1)[c]1ccccc1 [ODTC 2, diphenyltin(IV) diallyl dithiocarbamate] | 21.63% ± 3.17 | 19.03% ± 0.20 | 59.37% ± 3.07 | 17.20 ± 2.69 | 30.07 ± 2.38 | 47.27 | 0.52 ± 0.14 | 0.50 | 1.05 ± 0.02 | – | – | – | – | – | – | –
CC[C@]1(O)C[C@H]2CN(CCc3c([nH]c4ccccc34)[C@@](C(=O)OC)(c3cc4c(cc3OC)N(C=O)[C@H]3[C@@](O)(C(=O)OC)[C@H](OC(C)=O)[C@]5(CC)C=CCN6CC[C@]43[C@@H]65)C2)C1 [Vincristine (positive control), Vincristine, reference compound] | 66.76% ± 1.39 | 8.00% ± 0.00 | 25.24% ± 1.39 | 36.07 ± 2.85 | 18.57 ± 1.31 | 54.64 | – | 0.96 | – | 0.23 ± 0.03 | 0.24 ± 0.02 | cytostatic effects | 40 | – | – | –
CCN(CC)C(=S)[S][Sn]([c]1ccccc1)([c]1ccccc1)[c]1ccccc1 [ODTC 5, triphenyltin(IV) diethyl dithiocarbamate] | 9.84% ± 0.71 | 31.46% ± 2.86 | 58.70% ± 3.37 | 56.50 ± 1.64 | 26.47 ± 1.23 | 82.97 ± 2.84 | 0.79 ± 0.05 | 0.86 | 0.92 ± 0.05 | – | – | – | – | – | – | –
CCN(CC)C(=S)[S][Sn]([CH3])([CH3])[S]C(=S)N(CC)CC [ODTC 7, dimethyltin(IV) diethyl dithiocarbamate] | 23.41% ± 5.37 | 17.39% ± 4.52 | 57.19% ± 2.89 | 13.13 ± 2.62 | 14.93 ± 1.35 | 28.06 | 0.5 ± 0.02 | 0.15 | 3.4 ± 0.25 | – | – | – | – | – | – | –
CC(C)N(C(=S)[S][Sn]([c]1ccccc1)([c]1ccccc1)[c]1ccccc1)C(C)C [ODTC 3, triphenyltin(IV) diisopropyl dithiocarbamate] | 68.37% ± 4.78 | 4.34% ± 0.99 | 27.29% ± 5.12 | 59.70 ± 1.96 | 27.80 ± 2.17 | 87.5 | 0.75 ± 0.07 | 1.11 | 0.67 ± 0.06 | – | – | – | – | – | – | –
COc1cccc2c1C(=O)c1c(O)c3c(c(O)c1C2=O)C[C@@](O)(C(=O)CO)C[C@@H]3O[C@H]1C[C@H](N)[C@H](O)[C@H](C)O1 [doxorubicin] | – | – | – | – | – | – | – | – | – | – | – | – | – | 0.1 | – | –
C=CCN(CC=C)C(=S)[S][Sn]([c]1ccccc1)([c]1ccccc1)[c]1ccccc1 [ODTC 4, triphenyltin(IV) diallyl dithiocarbamate] | 13.22% ± 2.30 | 22.67% ± 3.54 | 64.10% ± 4.46 | 49.70 ± 2.84 | 38.63 ± 2.73 | 88.33 | 0.67 ± 0.14 | 0.71 | 0.94 ± 0.08 | – | – | – | – | – | – | –
CC(C)N(C(=S)[S][Sn]([S]C(=S)N(C(C)C)C(C)C)([c]1ccccc1)[c]1ccccc1)C(C)C [ODTC 1, diphenyltin(IV) diisopropyl dithiocarbamate] | – | – | – | 12.23 ± 1.93 | 13.17 ± 1.13 | 25.4 | 1.39 ± 0.46 | 0.96 | 1.45 ± 0.02 | – | – | – | – | – | does not cause cell cycle arrest at any phase; also recorded: Not cell cycle specific | –
CC(C)N(C(=S)[S][Sn]([CH3])([CH3])[S]C(=S)N(C(C)C)C(C)C)C(C)C [ODTC 6, dimethyltin(IV) diisopropyl dithiocarbamate] | – | – | – | – | – | – | 5 ± 0.02 | – | – | – | – | cytostatic effect | – | – | – | does not produce IC50 value at the tested range of concentration
